pIC50: −log10 of the molar value.
Molecular target: T1, human acetyl-CoA carboxylase 2 (ACC2) (Homo sapiens, UniProt O00763)
T1 construct: The cDNA encoding amino acids 144 to 2458 of human acetyl-CoA carboxylase 2; made in house; host or cells: Sf9 insect cells (baculovirus, pFastBac1)
Assay: Acetyl-CoA carboxylase enzyme assay (malonyl-CoA formation by LC/MS/MS)
Type: biochemical
Conditions: recombinant human ACC2 (aa 144-2458); read-out: IC50 ACC2
How it was run: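 Malonyl-CoA formation was read by LC/MS/MS MRM against a [13C3]-malonyl-CoA internal standard, after acetic acid quench. The enzyme was baculovirus/Sf9-expressed human ACC2 residues 144–2458, given 15 minutes room-temperature compound preincubation in HEPES pH 7.5 buffer with MgCl2, citrate and DTT. Substrate solution held 50 μM acetyl-CoA, 120 μM ATP and 2 mM KHCO3.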

T1 sequence (O00763 144-2458): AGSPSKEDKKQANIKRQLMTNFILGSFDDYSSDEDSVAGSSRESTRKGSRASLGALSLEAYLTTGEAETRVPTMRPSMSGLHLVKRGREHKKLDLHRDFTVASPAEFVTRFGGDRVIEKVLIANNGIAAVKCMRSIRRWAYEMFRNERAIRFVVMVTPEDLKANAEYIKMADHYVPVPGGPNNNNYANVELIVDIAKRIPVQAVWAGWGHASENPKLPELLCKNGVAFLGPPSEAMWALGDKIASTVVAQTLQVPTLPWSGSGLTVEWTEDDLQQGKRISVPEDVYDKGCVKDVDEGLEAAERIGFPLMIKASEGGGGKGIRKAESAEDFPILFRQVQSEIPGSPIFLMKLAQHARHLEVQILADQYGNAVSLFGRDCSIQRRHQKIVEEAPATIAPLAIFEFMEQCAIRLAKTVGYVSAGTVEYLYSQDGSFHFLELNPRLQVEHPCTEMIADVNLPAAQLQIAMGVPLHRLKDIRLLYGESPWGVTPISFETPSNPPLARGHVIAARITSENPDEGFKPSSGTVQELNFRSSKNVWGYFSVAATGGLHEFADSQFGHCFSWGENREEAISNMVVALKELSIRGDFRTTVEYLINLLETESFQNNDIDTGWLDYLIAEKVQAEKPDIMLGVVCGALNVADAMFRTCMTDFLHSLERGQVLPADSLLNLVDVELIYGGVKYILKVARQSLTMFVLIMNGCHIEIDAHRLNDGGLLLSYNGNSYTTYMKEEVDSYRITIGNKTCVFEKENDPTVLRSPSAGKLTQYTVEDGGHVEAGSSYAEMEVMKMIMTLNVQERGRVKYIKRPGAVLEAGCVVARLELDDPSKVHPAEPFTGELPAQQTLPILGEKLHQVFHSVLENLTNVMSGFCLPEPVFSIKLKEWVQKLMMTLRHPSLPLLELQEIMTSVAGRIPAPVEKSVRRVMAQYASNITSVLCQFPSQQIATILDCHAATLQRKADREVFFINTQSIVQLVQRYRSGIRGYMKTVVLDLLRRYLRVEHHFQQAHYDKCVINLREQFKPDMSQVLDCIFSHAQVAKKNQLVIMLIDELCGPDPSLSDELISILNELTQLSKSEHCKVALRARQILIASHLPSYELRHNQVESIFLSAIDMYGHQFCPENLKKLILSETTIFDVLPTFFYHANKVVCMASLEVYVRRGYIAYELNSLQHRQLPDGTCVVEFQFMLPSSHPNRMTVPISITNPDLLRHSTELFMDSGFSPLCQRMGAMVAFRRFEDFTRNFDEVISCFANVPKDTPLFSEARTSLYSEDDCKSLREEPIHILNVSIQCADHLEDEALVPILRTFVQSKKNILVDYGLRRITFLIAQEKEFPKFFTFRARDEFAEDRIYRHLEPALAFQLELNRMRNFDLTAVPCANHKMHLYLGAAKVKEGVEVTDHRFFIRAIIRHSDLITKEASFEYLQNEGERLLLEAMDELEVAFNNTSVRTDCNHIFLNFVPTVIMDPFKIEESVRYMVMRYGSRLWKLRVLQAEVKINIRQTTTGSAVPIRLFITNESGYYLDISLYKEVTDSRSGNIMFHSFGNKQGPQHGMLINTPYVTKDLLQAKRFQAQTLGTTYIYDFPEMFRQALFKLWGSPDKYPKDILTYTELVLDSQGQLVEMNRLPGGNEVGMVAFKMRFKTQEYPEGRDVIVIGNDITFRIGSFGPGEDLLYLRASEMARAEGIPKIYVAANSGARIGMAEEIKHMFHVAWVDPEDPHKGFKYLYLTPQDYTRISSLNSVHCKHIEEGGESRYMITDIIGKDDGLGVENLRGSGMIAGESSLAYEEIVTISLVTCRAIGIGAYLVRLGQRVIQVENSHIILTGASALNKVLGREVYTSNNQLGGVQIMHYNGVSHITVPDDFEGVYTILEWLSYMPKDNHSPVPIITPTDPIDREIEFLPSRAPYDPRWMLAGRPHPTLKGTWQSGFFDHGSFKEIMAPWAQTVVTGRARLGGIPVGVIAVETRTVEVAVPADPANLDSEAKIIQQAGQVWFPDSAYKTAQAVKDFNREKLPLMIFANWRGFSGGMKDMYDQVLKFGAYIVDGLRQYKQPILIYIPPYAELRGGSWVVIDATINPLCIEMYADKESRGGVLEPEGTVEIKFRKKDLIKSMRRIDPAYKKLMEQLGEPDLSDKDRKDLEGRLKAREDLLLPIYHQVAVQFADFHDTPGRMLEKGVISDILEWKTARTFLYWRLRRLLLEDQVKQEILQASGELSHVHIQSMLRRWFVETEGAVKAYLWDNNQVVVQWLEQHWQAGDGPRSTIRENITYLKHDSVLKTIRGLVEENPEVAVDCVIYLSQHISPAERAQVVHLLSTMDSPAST

| pIC50 | SMILES |
| --- | --- |
| 6.84 | Cn1c(C2CC2)cc2ccc(S(=O)(=O)N[C@H]3CC[C@H](C(=O)N4CCCC(C(C)(C)O)C4)CC3)cc21 (some centres unmarked) [Example 368, 2-cyclopropyl-N-((1r,4r)-4-(3-(2-hydroxypropan-2-yl)piperidine-1-carbonyl)cyclohexyl)-1-methyl-1H-indole-6-sulfonamide] |
| 6.74 | CCOC(=O)CCc1cc2ccc(S(=O)(=O)N[C@H]3CC[C@H](C(=O)N4CCCC4c4ccc(F)cc4)CC3)cc2n1C (some centres unmarked) [Example 369, ethyl 3-(6-(N-((1r,4r)-4-(2-(4-fluorophenyl)pyrrolidine-1-carbonyl)cyclohexyl)sulfamoyl)-1-methyl-1H-indol-2-yl)propanoate] |
| 6.57 | Cn1c(CCC(=O)O)cc2ccc(S(=O)(=O)N[C@H]3CC[C@H](C(=O)N4CCCC4c4ccc(F)cc4)CC3)cc21 (some centres unmarked) [Example 370, 3-(6-(N-((1r,4r)-4-(2-(4-fluorophenyl)pyrrolidine-1-carbonyl)cyclohexyl)sulfamoyl)-1-methyl-1H-indol-2-yl)propanoic acid] |
| 6.94 | CCOC(=O)CCc1c(Cl)c2ccc(S(=O)(=O)N[C@H]3CC[C@H](C(=O)N4CCCC4c4ccc(F)cc4)CC3)cc2n1C (some centres unmarked) [Example 371, ethyl 3-(3-chloro-6-(N-((1r,4r)-4-(2-(4-fluorophenyl)pyrrolidine-1-carbonyl)cyclohexyl)sulfamoyl)-1-methyl-1H-indol-2-yl)propanoate] |
| 7.35 | Cn1c(CCC(=O)O)c(Cl)c2ccc(S(=O)(=O)N[C@H]3CC[C@H](C(=O)N4CCCC4c4ccc(F)cc4)CC3)cc21 (some centres unmarked) [Example 372, 3-(3-chloro-6-(N-((1r,4r)-4-(2-(4-fluorophenyl)pyrrolidine-1-carbonyl)cyclohexyl)sulfamoyl)-1-methyl-1H-indol-2-yl)propanoic acid] |
| 7.12 | O=C([C@H]1CC[C@H](NS(=O)(=O)c2ccc3c(Cl)c(-c4ccccc4)[nH]c3c2)CC1)N1CCCCC1 [Example 373, 3-chloro-2-phenyl-N-((1r,4r)-4-(piperidine-1-carbonyl)cyclohexyl)-1H-indole-6-sulfonamide] |
| 7.70 | Cn1c(-c2ccccc2)c(Cl)c2ccc(S(=O)(=O)N[C@H]3CC[C@H](C(=O)N4CCCCC4)CC3)cc21 [Example 374, 3-chloro-1-methyl-2-phenyl-N-((1r,4r)-4-(piperidine-1-carbonyl)cyclohexyl)-1H-indole-6-sulfonamide] |
| 7.12 | O=C([C@H]1CC[C@H](NS(=O)(=O)c2ccc3cc(-c4ccccc4)[nH]c3c2)CC1)N1CCCCC1 [Example 375, 2-phenyl-N-((1r,4r)-4-(piperidine-1-carbonyl)cyclohexyl)-1H-indole-6-sulfonamide] |
| 7.02 | Cn1c(-c2ccccc2)cc2ccc(S(=O)(=O)N[C@H]3CC[C@H](C(=O)N4CCCCC4)CC3)cc21 [Example 376, 1-methyl-2-phenyl-N-((1r,4r)-4-(piperidine-1-carbonyl)cyclohexyl)-1H-indole-6-sulfonamide] |
| 8.00 | COC[C@@H](NC(=O)[C@H]1CC[C@H](NS(=O)(=O)c2ccc3cc(C4CC4)n(C)c3c2)CC1)c1ccccc1 [Example 377, (1r,4S)-4-(2-cyclopropyl-1-methyl-1H-indole-6-sulfonamido)-N-((S)-2-methoxy-1-phenylethyl)cyclohexanecarboxamide] |
| 8.00 | Cn1c(-c2ccccc2)cc2ccc(S(=O)(=O)N[C@H]3CC[C@H](C(=O)N4CCCC(C(C)(C)O)C4)CC3)cc21 (some centres unmarked) [Example 378, N-((1r,4r)-4-(3-(2-hydroxypropan-2-yl)piperidine-1-carbonyl)cyclohexyl)-1-methyl-2-phenyl-1H-indole-6-sulfonamide] |
| 6.24 | COc1ccc(COC(=O)C2(C)CCC(NS(=O)(=O)c3ccc4c(ccn4C)c3)CC2)cc1 (centres unmarked) [Example 379, 4-methoxybenzyl 1-methyl-4-(1-methyl-1H-indole-5-sulfonamido)cyclohexanecarboxylate] |
| 7.12 | Cn1c(C2CC2)c(C#N)c2ccc(S(=O)(=O)N[C@H]3CC[C@H](C(=O)N4CCN[C@@H](C(F)(F)F)C4)CC3)cc21 [Example 380, 3-cyano-2-cyclopropyl-1-methyl-N-((1R,4r)-4-((R)-3-(trifluoromethyl)piperazine-1-carbonyl)cyclohexyl)-1H-indole-6-sulfonamide] |
| 6.68 | Cn1c(C2CC2)c(C#N)c2ccc(S(=O)(=O)N[C@H]3CC[C@H](C(=O)N4CCCCC4)CC3)cc21 [Example 381, 3-cyano-2-cyclopropyl-1-methyl-N-((1r,4r)-4-(piperidine-1-carbonyl)cyclohexyl)-1H-indole-6-sulfonamide] |
| 7.02 | C[C@H]1CCCCN1C(=O)[C@H]1CC[C@H](NS(=O)(=O)c2ccc3c(C#N)c(C4CC4)n(C)c3c2)CC1 [Example 382, 3-cyano-2-cyclopropyl-1-methyl-N-((1S,4r)-4-((S)-2-methylpiperidine-1-carbonyl)cyclohexyl)-1H-indole-6-sulfonamide] |
| > 8.00 | CC(C)(O)C1CCCN(C(=O)[C@H]2CC[C@H](NS(=O)(=O)c3ccc4c(Cl)c(-c5ccccc5)[nH]c4c3)CC2)C1 (some centres unmarked) [Example 383, 3-chloro-N-((1r,4r)-4-(3-(2-hydroxypropan-2-yl)piperidine-1-carbonyl)cyclohexyl)-2-phenyl-1H-indole-6-sulfonamide] |
| > 8.00 | Cn1c(-c2ccccc2)c(Cl)c2ccc(S(=O)(=O)N[C@H]3CC[C@H](C(=O)N4CCCC(C(C)(C)O)C4)CC3)cc21 (some centres unmarked) [Example 384, 3-chloro-N-((1r,4r)-4-(3-(2-hydroxypropan-2-yl)piperidine-1-carbonyl)cyclohexyl)-1-methyl-2-phenyl-1H-indole-6-sulfonamide] |
| 6.04 | Cn1ccc2cc(S(=O)(=O)NC3CCC(C)(C(=O)N4CCOCC4)CC3)ccc21 (centres unmarked) [Example 385, 1-methyl-N-(4-methyl-4-(morpholine-4-carbonyl)cyclohexyl)-1H-indole-5-sulfonamide] |
| 7.60 | COC(=O)CCc1ccc(-c2cc3ccc(S(=O)(=O)N[C@H]4CC[C@H](C(=O)N5CCCC5c5ccc(F)cc5)CC4)cc3n2C)cc1 (some centres unmarked) [Example 386, methyl 3-(4-(6-(N-((1r,4r)-4-(2-(4-fluorophenyl)pyrrolidine-1-carbonyl)cyclohexyl)sulfamoyl)-1-methyl-1H-indol-2-yl)phenyl)propanoate] |
| > 8.00 | Cn1c(-c2ccc(CCC(=O)O)cc2)cc2ccc(S(=O)(=O)N[C@H]3CC[C@H](C(=O)N4CCCC4c4ccc(F)cc4)CC3)cc21 (some centres unmarked) [Example 387, 3-(4-(6-(N-((1r,4r)-4-(2-(4-fluorophenyl)pyrrolidine-1-carbonyl)cyclohexyl)sulfamoyl)-1-methyl-1H-indol-2-yl)phenyl)propanoic acid] |
| 6.96 | CC(C)OC(=O)C1(C)CCC(NS(=O)(=O)c2ccc3c(ccn3C)c2)CC1 (centres unmarked) [Example 388, isopropyl 1-methyl-4-(1-methyl-1H-indole-5-sulfonamido)cyclohexanecarboxylate] |
| 7.82 | Cn1c(C2CC2)c(C#N)c2ccc(S(=O)(=O)N[C@H]3CC[C@H](C(=O)N4CCC[C@@H]4C(F)(F)F)CC3)cc21 [Example 389, 3-cyano-2-cyclopropyl-1-methyl-N-((1R,4r)-4-((R)-2-(trifluoromethyl)pyrrolidine-1-carbonyl)cyclohexyl)-1H-indole-6-sulfonamide] |
| 8.00 | Cn1c(C2CC2)c(C#N)c2ccc(S(=O)(=O)N[C@H]3CC[C@H](C(=O)N4CCCC4C(C)(C)C)CC3)cc21 (some centres unmarked) [Example 390, N-((1r,4r)-4-(2-tert-butylpyrrolidine-1-carbonyl)cyclohexyl)-3-cyano-2-cyclopropyl-1-methyl-1H-indole-6-sulfonamide] |
| 6.12 | CCOC(=O)C1(C)CCC(NS(=O)(=O)c2ccc3c(ccn3C)c2)CC1 (centres unmarked) [Example 391, ethyl 1-methyl-4-(1-methyl-1H-indole-5-sulfonamido)cyclohexanecarboxylate] |
| 6.94 | Cn1c(-c2ccc(CCC(=O)O)cc2)cc2ccc(S(=O)(=O)N[C@H]3CC[C@H](C(=O)N4CCC[C@@H]4c4ccc(F)cc4)CC3)cc21 [Example 392, 3-(4-(6-(N-((1R,4r)-4-((R)-2-(4-fluorophenyl)pyrrolidine-1-carbonyl)cyclohexyl)sulfamoyl)-1-methyl-1H-indol-2-yl)phenyl)propanoic acid] |
| > 8.00 | Cn1c(-c2ccc(CCC(=O)O)cc2)cc2ccc(S(=O)(=O)N[C@H]3CC[C@H](C(=O)N4CCC[C@H]4c4ccc(F)cc4)CC3)cc21 [Example 393, 3-(4-(6-(N-((1S,4r)-4-((S)-2-(4-fluorophenyl)pyrrolidine-1-carbonyl)cyclohexyl)sulfamoyl)-1-methyl-1H-indol-2-yl)phenyl)propanoic acid] |
| 7.82 | COC(=O)CCc1ccc(-c2cc3ccc(S(=O)(=O)N[C@H]4CC[C@H](C(=O)N5CCCC5C(C)(C)C)CC4)cc3n2C)cc1 (some centres unmarked) [Example 394, methyl 3-(4-(6-(N-((1r,4r)-4-(2-tert-butylpyrrolidine-1-carbonyl)cyclohexyl)sulfamoyl)-1-methyl-1H-indol-2-yl)phenyl)propanoate] |
| > 8.00 | Cn1c(-c2ccc(CCC(=O)O)cc2)cc2ccc(S(=O)(=O)N[C@H]3CC[C@H](C(=O)N4CCCC4C(C)(C)C)CC3)cc21 (some centres unmarked) [Example 395, 3-(4-(6-(N-((1r,4r)-4-(2-tert-butylpyrrolidine-1-carbonyl)cyclohexyl)sulfamoyl)-1-methyl-1H-indol-2-yl)phenyl)propanoic acid] |
| 8.00 | COC(=O)C(C)(C)[C@@H](NC(=O)[C@H]1CC[C@H](NS(=O)(=O)c2ccc3cc(C4CC4)n(C)c3c2)CC1)c1ccccc1 [Example 396, (S)-methyl 3-((1r,4S)-4-(2-cyclopropyl-1-methyl-1H-indole-6-sulfonamido)cyclohexanecarboxamido)-2,2-dimethyl-3-phenylpropanoate] |

— patent US8697739B2, “Bicyclic acetyl-CoA carboxylase inhibitors and uses thereof” (Novartis AG, priority 2010, dated 2014)
